Results on eight compounds are retold here after paper PMC7582876, “Antiproliferative Properties of a Few Auranofin-Related Gold(I) and Silver(I) Complexes in Leukemia Cells and their Interferences with the Ubiquitin Proteasome System” (Molecules, 2020).

Molecules are shown by their SMILES.

For experiment [1], the system named is CEM/ADR5000 cells. As to the kind of experiment: Resazurin cytotoxicity assay, multidrug-resistant CEM/ADR5000 leukemia cells. Conditions: for IC50: cell growth, resazurin assay, 72 h incubation, IC50 ± SD, n = 3; for Degree of Resistance: ratio of IC50 of CEM/ADR5000 cells divided by IC50 of CCRF-CEM cells. In kind it is cell-based, human. The procedure:
Drug-sensitive CCRF-CEM and multidrug-resistant (MDR) P-glycoprotein (P-gp)-over-expressing CEM/ADR5000 leukemic cells were kindly provided by Prof. Axel Sauerbrey (Department of Pediatrics, University of Jena, Germany). Cells were cultured in RPMA1640 medium including 10% fetal bovine serum (FBS) and 1% penicillin (1000 U/mL)/streptomycin (100 µg/mL) (Life Technologies, Darmstadt, Germany). Doxorubicin (5000 ng/mL) was added to maintain overexpression of P-gp (MDR1 and ABCB1) in CEM/ADR5000 cells. Doxorubicin was obtained from the University Pharmacy of the University Medical Center Mainz. CEM/ADR5000 cells display a more than 1000-fold resistance to doxorubicin [27] and are therefore a suitable model to identify novel drugs without or very low cross-resistance.
The cytotoxic effects of the compounds solved in DMSO (Sigma-Aldrich, Taufkirchen, Germany) were tested by the resazurin assay. This assay is based on reduction of the indicator dye, resazurin, to the highly fluorescent resorufin by viable cells. Cells lethally damaged by cytotoxic compounds rapidly lose the enzymatic capability to reduce non-fluorescent resazurin to the highly fluorescent resorufin. As the reductive potential happens in a dose-dependent manner, this chemical reaction can be exploited to quantitatively determine the cytotoxic potential of investigational compounds and to measure dose-response relationships. With increasing concentrations of a cytotoxic drug, the fluorescence signal fades out. Aliquots of 10,000 cells/100 µL cells were seeded into 96-well plates (Thermo-Scientific, Dreieich, Germany) and immediately treated with various concentrations of each compound. After 72 h incubation at 37 °C, 20 µL resazurin 0.01% w/v solution (Invitrogen, Dreieich, Germany) were added to each well, and the plates were maintained at 37 °C for 4 h. Fluorescence was measuring by an Infinite M2000 Proplate reader (Tecan, Crailsheim, Germany) with an excitation wavelength of 544 nm and an emission wavelength of 590 nm. Each experiment was done at least three times with six replicates each. The viability was analyzed in comparison with untreated cells. […] It is a well-established measure to determine the cytotoxic potential of anticancer drugs. The IC50 values were calculated from a calibration curve by linear regression using Microsoft Excel.
Background: Resazurin is reduced to fluorescent resorufin, in cell work by metabolically active cells.

The test system of experiment [2] is human fibroblast cells (HDF). Further details: method as in PMID 29057040. Conditions: previously assessed, ref [18], read-out: IC50, cell viability of healthy cells (HDF); cited from earlier work.
For experiment [3], the system named is human embryonic kidney cells (HEK293). Further details: method as in PMID 29057040. Conditions: previously assessed, ref [18], read-out: IC50, cell viability of healthy cells (HEK293); cited from earlier work.

`CC[PH](CC)(CC)[Ag][Br]` [Ag(PEt3)Br]: in experiment [1], it took 3890 ± 700 nM to reach half-maximal inhibition (IC50) and the “Degree of Resistance” value is reported as 2.59.

Regarding `CC[PH](CC)(CC)[Ag][Cl]` [Ag(PEt3)Cl], in experiment [1], the midpoint of inhibition, the IC50, lay at 2640 ± 480 nM and the “Degree of Resistance” value is 1.94.

Consider `CC[PH](CC)(CC)[Ag][I]` [Ag(PEt3)I], for which, in experiment [1], the IC50 worked out at 1460 ± 150 nM and the “Degree of Resistance” value is 1.14.

Regarding `CCP(CC)CC.[Br][Au]` [Au(PEt3)Br], in experiment [1], the midpoint of inhibition, the IC50, lay at 270 ± 50 nM and the “Degree of Resistance” value came out at 0.96.

Turning to `CCP(CC)CC.[Au+].[Cl-]` [Au(PEt3)Cl], the IC50 was 260 ± 40 nM in experiment [1], greater than 5000 nM in experiment [2] and greater than 5000 nM in experiment [3]. The “Degree of Resistance” value in experiment [1] was determined as 0.74.

Take `CC[P](CC)(CC)[Au][I]` [Au(PEt3)I]: the IC50 is 280 ± 80 nM in experiment [1], greater than 5000 nM in experiment [2] and greater than 5000 nM in experiment [3]. Moreover, the “Degree of Resistance” value in experiment [1] is reported as 0.87.

Turning to `CCP(CC)CC.CCP(CC)CC.O=[N+]([O-])[O-].[Ag+]` [[Ag(PEt3)2]NO3], the “Degree of Resistance” value in experiment [1] was found to be 3.05.

Consider `CC(=O)OC[C@H]1O[C@@H]([S-])[C@H](OC(C)=O)[C@@H](OC(C)=O)[C@@H]1OC(C)=O.CCP(CC)CC.[Au+]` [auranofin, Auranofin], for which the IC50 in experiment [1] was 280 ± 60 nM; in experiment [2], greater than 5000 nM; in experiment [3] it was greater than 5000 nM. Further, in experiment [1], the “Degree of Resistance” value was 1.27.

The term IC50 denotes the concentration that inhibits the measured activity by half.
